One compound from US20250212892A1, “USE OF THERMALLY HYDROLYZED KERATIN PEPTIDE SOLUTION IN ENHANCING THE YIELD AND QUALITY OF TEA LEAVES” (CH Biotech R&D Co., Ltd., priority 2023, published 2025) can be followed below.

The subject of the assay is tea tree (Camellia Sinesis). As to the kind of experiment: Spring application (soil infusion, then leaf spray twice): tea shoot production and proportion of terminal facing leaves. Format: in vivo. As to conditions: urea 200× dilution. An excerpt:
The inventors defined a unit area of 30×30 cm^2 for harvesting tea shoot and measuring weights. The inventors further defined a percentage value of cease-growing bud weight relative to the total bud weight, as indication of the increased tea leaf production without advancing the bud-aging side-effect.
One of the experiments involves first soil infusion application one week after initial harvesting, then leaf-spraying of KHP-1 500× solution twice, first time at the one-bud-with-one-leaf stage and second time at one-bud-with-two-leaf stage. In addition to a CK group, another urea application group of 200× dilution (200 kg of water to 1 kg of urea) is also tabulated. The result is shown in FIG. 1A where the tea shoot's production for the KHP-1 500× group is 32.54 g in a 900 cm^2 harvest area, higher than that of the CK group (20.86 g) and urea group (28.69 g).
This is reflected in FIG. 1B.

Regarding `NC(N)=O` [urea], the “tea shoot's production” value (900 cm^2 harvest area, FIG. 1A) is 28.69 g. Also, the “proportion of terminal facing leaves” value (FIG. 1B) amounted to 47.4%.
